Assay results reported in patent US9382234B2, “Enhancer of Zeste Homolog 2 inhibitors” (GlaxoSmithKline LLC, priority 2012, dated 2016).

Target: T1, EZH2 within the PRC2 complex (Homo sapiens, UniProt Q15910)
T1 construct: FLAG; made in house; host or cells: Sf9 cells
Assay: EZH2 methyltransferase scintillation proximity assay (SPA) with PRC2 complex
Assay type: biochemical
Conditions: 3H-SAM methyl transfer to Histone H3 of HeLa mononucleosomes; 30 min preincubation, 1 hour reaction

T1 sequence (Q15910 whole entry): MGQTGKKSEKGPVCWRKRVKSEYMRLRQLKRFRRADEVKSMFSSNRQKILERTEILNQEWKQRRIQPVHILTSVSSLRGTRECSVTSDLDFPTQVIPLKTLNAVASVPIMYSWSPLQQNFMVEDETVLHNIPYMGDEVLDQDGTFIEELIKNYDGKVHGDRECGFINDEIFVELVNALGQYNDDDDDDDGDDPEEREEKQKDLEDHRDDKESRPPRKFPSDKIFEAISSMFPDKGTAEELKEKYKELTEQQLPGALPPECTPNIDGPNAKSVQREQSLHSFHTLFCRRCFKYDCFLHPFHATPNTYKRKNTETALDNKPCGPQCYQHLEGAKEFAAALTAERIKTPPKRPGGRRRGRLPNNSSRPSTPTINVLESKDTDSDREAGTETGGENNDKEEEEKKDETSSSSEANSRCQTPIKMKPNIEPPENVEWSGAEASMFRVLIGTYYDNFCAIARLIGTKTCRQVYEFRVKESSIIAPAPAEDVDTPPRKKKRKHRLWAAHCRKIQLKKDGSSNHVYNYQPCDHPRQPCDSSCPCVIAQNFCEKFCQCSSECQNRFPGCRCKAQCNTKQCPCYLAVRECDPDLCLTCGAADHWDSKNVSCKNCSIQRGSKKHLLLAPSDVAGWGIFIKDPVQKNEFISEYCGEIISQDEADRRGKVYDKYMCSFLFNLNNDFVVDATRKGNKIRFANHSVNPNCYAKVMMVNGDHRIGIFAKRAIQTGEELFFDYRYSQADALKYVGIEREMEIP
T1 sequence (O75530 whole entry partner): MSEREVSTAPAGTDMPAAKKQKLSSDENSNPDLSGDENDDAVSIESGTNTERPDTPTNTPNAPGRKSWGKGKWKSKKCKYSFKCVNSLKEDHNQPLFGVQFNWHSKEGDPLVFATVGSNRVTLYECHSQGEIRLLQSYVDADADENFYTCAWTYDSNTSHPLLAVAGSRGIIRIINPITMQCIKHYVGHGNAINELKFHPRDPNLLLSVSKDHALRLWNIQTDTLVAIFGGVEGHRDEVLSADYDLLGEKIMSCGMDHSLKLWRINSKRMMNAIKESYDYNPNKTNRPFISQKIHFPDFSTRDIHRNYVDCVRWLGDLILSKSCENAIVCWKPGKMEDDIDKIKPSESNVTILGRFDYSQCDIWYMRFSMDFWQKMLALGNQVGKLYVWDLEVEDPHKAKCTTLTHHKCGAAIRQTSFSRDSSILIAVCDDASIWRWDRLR
T1 sequence (Q15022 whole entry partner): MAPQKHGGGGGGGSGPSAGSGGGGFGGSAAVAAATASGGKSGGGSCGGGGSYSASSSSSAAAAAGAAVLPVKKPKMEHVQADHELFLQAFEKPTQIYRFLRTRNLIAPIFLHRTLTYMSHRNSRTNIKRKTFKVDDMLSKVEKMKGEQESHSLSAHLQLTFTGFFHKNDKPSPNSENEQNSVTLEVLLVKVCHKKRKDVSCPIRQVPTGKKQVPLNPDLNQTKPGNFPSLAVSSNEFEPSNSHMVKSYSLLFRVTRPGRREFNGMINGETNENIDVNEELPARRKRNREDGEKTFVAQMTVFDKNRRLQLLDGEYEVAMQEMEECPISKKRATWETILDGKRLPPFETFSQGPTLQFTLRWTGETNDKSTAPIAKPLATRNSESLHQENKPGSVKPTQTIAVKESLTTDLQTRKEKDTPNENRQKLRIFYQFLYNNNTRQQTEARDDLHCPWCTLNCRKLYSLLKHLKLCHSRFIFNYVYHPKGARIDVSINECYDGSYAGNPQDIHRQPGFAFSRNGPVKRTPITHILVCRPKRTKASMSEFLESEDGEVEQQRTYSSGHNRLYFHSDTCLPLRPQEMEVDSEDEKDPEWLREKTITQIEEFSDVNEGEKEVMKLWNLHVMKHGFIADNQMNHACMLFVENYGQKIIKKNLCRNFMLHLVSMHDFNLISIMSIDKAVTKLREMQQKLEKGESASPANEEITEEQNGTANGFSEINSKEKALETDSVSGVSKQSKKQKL
T1 sequence (Q09028 whole entry partner): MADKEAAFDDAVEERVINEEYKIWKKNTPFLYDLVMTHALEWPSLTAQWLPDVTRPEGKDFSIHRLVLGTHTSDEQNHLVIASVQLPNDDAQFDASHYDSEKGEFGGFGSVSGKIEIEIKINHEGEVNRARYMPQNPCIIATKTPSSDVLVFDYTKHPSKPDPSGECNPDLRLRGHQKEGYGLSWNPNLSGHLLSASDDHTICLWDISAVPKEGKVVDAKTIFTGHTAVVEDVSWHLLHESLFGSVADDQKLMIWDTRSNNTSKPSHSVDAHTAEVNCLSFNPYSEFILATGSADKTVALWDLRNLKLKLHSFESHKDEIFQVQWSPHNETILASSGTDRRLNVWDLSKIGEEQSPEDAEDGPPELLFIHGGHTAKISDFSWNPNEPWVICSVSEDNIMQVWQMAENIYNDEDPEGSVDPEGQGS
T1 sequence (Q6ZN18 whole entry partner): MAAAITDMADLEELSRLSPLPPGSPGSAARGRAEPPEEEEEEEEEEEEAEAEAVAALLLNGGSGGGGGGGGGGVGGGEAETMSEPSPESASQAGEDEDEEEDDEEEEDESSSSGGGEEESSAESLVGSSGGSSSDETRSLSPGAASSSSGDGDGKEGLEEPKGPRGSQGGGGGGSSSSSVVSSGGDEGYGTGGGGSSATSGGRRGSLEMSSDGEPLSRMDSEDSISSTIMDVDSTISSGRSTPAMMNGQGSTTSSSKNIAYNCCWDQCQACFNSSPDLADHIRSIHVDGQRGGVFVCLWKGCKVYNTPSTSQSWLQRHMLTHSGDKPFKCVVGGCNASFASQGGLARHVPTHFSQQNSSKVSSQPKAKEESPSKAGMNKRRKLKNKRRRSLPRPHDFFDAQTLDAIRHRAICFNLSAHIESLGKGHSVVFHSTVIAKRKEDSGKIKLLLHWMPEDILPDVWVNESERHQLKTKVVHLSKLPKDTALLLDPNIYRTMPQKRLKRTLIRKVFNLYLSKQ

**Q.** `Cc1cc(=O)c(CNC(=O)c2cc(Cl)cc(OC3CCN(C(=O)OCc4ccccc4)CC3)c2C)c(C)[nH]1` [Example 1, Benzyl 4-(5-chloro-3-(((2,6-dimethyl-4-oxo-1,4-dihydropyridin-3-yl)methyl)carbamoyl) -2-methylphenoxy)piperidine-1-carboxylate] was tested. Which IC50 did it give?
**A.** Its IC50 is 0.2 µM.

**Q.** With `Cc1cc(=O)c(CNC(=O)c2cc(Cl)cc(OC3CCOCC3)c2C)c(C)[nH]1` [Example 2, 5-Chloro-N-((2,6-dimethyl-4-oxo-1,4-dihydropyridin-3-yl)methyl)-2-methyl-3-((tetrahydro-2H-pyran-4-yl)oxy)benzamide] as the molecule, how does the IC50 read?
**A.** The IC50 was 6.31 µM.

**Q.** Which IC50 does the source give for `Cc1cc(=O)c(CNC(=O)c2cc(Cl)cc(OC3CCN(c4ccncn4)CC3)c2C)c(C)[nH]1` [Example 3, 5-Chloro-N-((2,6-dimethyl-4-oxo-1,4-dihydropyridin-3-yl)methyl)-2-methyl-3-((1-(pyrimidin-4-yl)piperidin-4-yl)oxy)benzamide] here?
**A.** The IC50 was 0.251 µM.

**Q.** For `Cc1cc(=O)c(CNC(=O)c2cc(Cl)cc(O[C@H]3CC[C@H](C(=O)NCc4ccccc4)CC3)c2C)c(C)[nH]1` [Example 4, 3-(((trans)-4-(Benzylcarbamoyl)cyclohexyl)oxy)-5-chloro-N-((2,6-dimethyl-4-oxo-1,4-dihydropyridin-3-yl)methyl)-2-methylbenzamide], which IC50 is on record?
**A.** The IC50 was 0.04 µM.

**Q.** Which IC50 does the source give for `Cc1cc(=O)c(CNC(=O)c2cc(Cl)cc(OC3CCN(c4ccncn4)CC3)c2C)c(C)o1` [Example 5, 5-Chloro-N-((2,6-dimethyl-4-oxo-4H-pyran-3-yl)methyl)-2-methyl-3-((1-(pyrimidin-4-yl)piperidin-4-yl)oxy)benzamide] here?
**A.** The IC50 was 3.16 µM.

**Q.** For `CCN(c1cc(Cl)cc(C(=O)NCc2c(C)oc(C)cc2=O)c1C)[C@H]1CC[C@H](N(C)C)CC1` [Example 6, 5-Chloro-N-((2,6-dimethyl-4-oxo-4H-pyran-3-yl)methyl)-3-(((trans)-4-(dimethylamino)cyclohexyl)(ethyl)amino)-2-methylbenzamide], which IC50 is on record?
**A.** The IC50 was 0.04 µM.

**Q.** `Cc1cc(=O)c(CNC(=O)c2cc(Cl)cc(OC3CCN(C(=O)OC(C)(C)C)CC3)c2C)c(C)[nH]1` [Example 8, tert-Butyl 4-(5-chloro-3-(((2,6-dimethyl-4-oxo-1,4-dihydropyridin-3-yl)methyl)carbamoyl)-2-methylphenoxy)piperidine-1-carboxylate] was tested. Which IC50 did it give?
**A.** The IC50 was 0.795 µM.

**Q.** How did the IC50 turn out when `Cc1cc(=O)c(CNC(=O)c2cc(Cl)cc(OC3CCNCC3)c2C)c(C)[nH]1` [Example 9, 5-Chloro-N-((2,6-dimethyl-4-oxo-1,4-dihydropyridin-3-yl)methyl)-2-methyl-3-(piperidin-4-yloxy)benzamide] was run?
**A.** The IC50 was 2.5 µM.

**Q.** How did the IC50 turn out when `Cc1cc(=O)c(CNC(=O)c2cc(Cl)cc(O[C@H]3CC[C@H](N4CCCC4)CC3)c2C)c(C)[nH]1` [Example 12, 5-Chloro-N-((2,6-dimethyl-4-oxo-1,4-dihydropyridin-3-yl)methyl)-2-methyl-3-(((1r,4r)-4-(pyrrolidin-1-yl)cyclohexyl)oxy)benzamide] was run?
**A.** The IC50 was 0.795 µM.

**Q.** With `Cc1cc(=O)c(CNC(=O)c2cc(Cl)cc(OC3CCN(C)CC3)c2C)c(C)[nH]1` [Example 13, 5-Chloro-N-((2,6-dimethyl-4-oxo-1,4-dihydropyridin-3-yl)methyl)-2-methyl-3-((1-methylpiperidin-4-yl)oxy)benzamide] as the molecule, how does the IC50 read?
**A.** Its IC50 is 5 µM.

**Q.** How did the IC50 turn out when `Cc1cc(=O)c(CNC(=O)c2cc(Cl)cc(O[C@H]3CC[C@H](N(C)C)CC3)c2C)c(C)[nH]1` [Example 14, 5-Chloro-N-((2,6-dimethyl-4-oxo-1,4-dihydropyridin-3-yl)methyl)-3-(((trans)-4-(dimethylamino)cyclohexyl)oxy)-2-methylbenzamide] was run?
**A.** The IC50 was 0.395 µM.

**Q.** How did the IC50 turn out when `CCN(c1cc(Br)cc(C(=O)NCc2c(C)[nH]c(C)cc2=O)c1C)C1CCOCC1` [Example 15, 5-Bromo-N-((2,6-dimethyl-4-oxo-1,4-dihydropyridin-3-yl)methyl)-3-(ethyl(tetrahydro-2H-pyran-4-yl)amino)-2-methylbenzamide] was run?
**A.** The IC50 was 0.04 µM.

**Q.** With `CCN(c1cc(Cl)cc(C(=O)NCc2c(C)[nH]c(C)cc2=O)c1C)[C@H]1CC[C@H](N(C)C)CC1` [Example 16, 5-Chloro-N-((2,6-dimethyl-4-oxo-1,4-dihydropyridin-3-yl)methyl)-3-(((trans)-4-(dimethylamino)cyclohexyl)(ethyl)amino)-2-methylbenzamide] as the molecule, how does the IC50 read?
**A.** Its IC50 is 0.003 µM.

**Q.** `CCN(c1cc(Cl)cc(C(=O)NCc2c(C)[nH]c(C)c(N)c2=O)c1C)C1CCOCC1` [Example 17] was tested. Which IC50 did it give?
**A.** The IC50 was 0.032 µM.

**Q.** How did the IC50 turn out when `CCN(c1cc(Br)cc(C(=O)NCc2c(C)[nH]c(C)c(N)c2=O)c1C)[C@H]1CC[C@H](N(C)C)CC1` [Example 18, N-((5-Amino-2,6-dimethyl-4-oxo-1,4-dihydropyridin-3-yl)methyl)-5-bromo-3-(((1r,4r)-4-(dimethylamino)cyclohexyl)(ethyl)amino)-2-methylbenzamide] was run?
**A.** Its IC50 is 0.032 µM.

**Q.** For `CCN(c1cc(Br)cc(C(=O)NCc2c(C)[nH]c(C)cc2=O)c1C)[C@H]1CC[C@H](N(C)C)CC1` [Example 19, 5-Bromo-N-((2,6-dimethyl-4-oxo-1,4-dihydropyridin-3-yl)methyl)-3-(((1r,4r)-4-(dimethylamino)cyclohexyl)(ethyl)amino)-2-methylbenzamide], which IC50 is on record?
**A.** The IC50 was 0.04 µM.

**Q.** Which IC50 does the source give for `CCN(c1cc(Br)cc(C(=O)NCc2c(C)[nH]c(C)c(N)c2=O)c1C)[C@H]1CC[C@H](N2CCOCC2)CC1` [Example 20, N-((5-Amino-2,6-dimethyl-4-oxo-1,4-dihydropyridin-3-yl)methyl)-5-bromo-3-(ethyl((1r,4r)-4-morpholinocyclohexyl)amino)-2-methylbenzamide] here?
**A.** Its IC50 is 0.05 µM.
